{"source": "patent US20110046224A1", "about": "“METHODS TO ACCELERATE MUSCLE DEVELOPMENT, DECREASE FAT DEPOSITS, AND ENHANCE FEEDING EFFICIENCY IN PIGS” (BIOKAB, S.A. de C.V., priority 2009, published 2011)", "key": {"pigs for meat supply [1]": {"system": "pigs for meat supply", "assay": "Production characteristics of finishing pigs fed supplemented food (weight, weight gain, food intake, food conversion)", "format": "in vivo, York-Landrace (YL) x Duroc (DC)", "conditions": "supplemented pigs vs untreated control group"}, "pigs for meat supply [2]": {"system": "pigs for meat supply", "assay": "Carcass quality of pigs fed supplemented food (body fat and lean efficiency estimated in vivo with Piglot 105)", "parameters": "species or system York-Landrace (YL) x Duroc (DC)", "conditions": "for Average fat / LEAN EFFICIENCY: at approx. 100 kg, mean and standard deviation", "from_the_text": "(§1) 30 pigs were used, 15 castrated males and 15 females obtained from a terminal breeding York-Landrace (YL)×Duroc (DC); at the beginning of the study, said pigs weighted 77.83±1.20 Kg and were approximately 18 weeks old. Pigs were kept in individual pens, and were randomly distributed to 3 treatments, with ten repetitions per treatment. Treatments were: a positive control, including 5 ppm of commercial ractopamine; a second treatment including 12 ppm of pure ferulic acid and a third treatment containing 15 ppm of substantially pure ferulic acid per ton of food. Pigs were weighted every seven days, studying the following variables: initial weight, weekly weight, and final weight of the pigs; daily food intake. This was used to estimate the daily, weekly and term weight gain, as well as food efficiency. When reaching the approximate weight of 100 kg, animals were evaluated in vivo (using Piglot 105, SFK-Technology, Netherlands) in order to estimate the amount of body fat and lean efficiency. Results were evaluated randomly, using SAS general linear models procedures."}, "pigs for meat supply [3]": {"system": "pigs for meat supply", "assay": "Production characteristics of finishing pigs fed supplemented food (weight, weight gain, food intake, food conversion)", "format": "in vivo, York-Landrace (YL) x Duroc (DC)", "conditions": "for DAILY GAIN / WEIGHT GAIN / FINAL WEIGHT / AVERAGE INTAKE / TOTAL INTAKE: mean and standard deviation; for AVERAGE INTAKE: daily average food intake; for CONVERSION: food conversion; for TOTAL INTAKE: food intake", "from_the_text": "as §1"}}, "data": [{"smiles": "COc1cc(/C=C/C(=O)O)ccc1O", "note": "[ferulic acid]", "values": [{"measurement": "intake of total food and daily average compared to the control group (untreated)", "setting": "pigs for meat supply [1]", "value": "lower intake"}, {"measurement": "amount of dorsal fat (in words)", "setting": "pigs for meat supply [2]; pigs fed with 15 ppm", "value": "lower amount of dorsal fat"}, {"measurement": "lean efficiency (in words)", "setting": "pigs for meat supply [2]; pigs fed with 15 ppm", "value": "better lean efficiency"}]}, {"smiles": "COc1cc(/C=C/C(=O)O)ccc1O", "note": "[Pure ferulic acid, trans-4-hydroxy-3-methoxy cinnamic acid]", "values": [{"measurement": "DAILY GAIN", "setting": "pigs for meat supply [3]; 12 ppm in food", "value": "0.873 ± .20 kg"}, {"measurement": "WEIGHT GAIN", "setting": "pigs for meat supply [3]; 12 ppm in food", "value": "24.45 ± 5.64", "unit": "kg"}, {"measurement": "FINAL WEIGHT", "setting": "pigs for meat supply [3]; 12 ppm pure ferulic acid in food, start 79.4 Kg", "value": "103.85 ± 7.63", "unit": "kg"}, {"measurement": "AVERAGE INTAKE", "setting": "pigs for meat supply [3]; 12 ppm in food", "value": "2.34 ± .40 kg"}, {"measurement": "CONVERSION", "setting": "pigs for meat supply [3]; 12 ppm in food", "value": 2.68}, {"measurement": "TOTAL INTAKE", "setting": "pigs for meat supply [3]; 12 ppm in food", "value": "81.75 ± 14.00", "unit": "kg"}, {"measurement": "CARCASS EFFICIENCY", "setting": "pigs for meat supply [2]; 12 ppm in food", "value": 88.01, "unit": "%"}, {"measurement": "EFFICIENCY IN CUTS", "setting": "pigs for meat supply [2]; 12 ppm in food", "value": 49.66, "unit": "%"}, {"measurement": "Average fat", "setting": "pigs for meat supply [2]; 12 ppm in food", "value": "13.5 ± 3.58", "unit": "mm"}, {"measurement": "LEAN EFFICIENCY", "setting": "pigs for meat supply [2]; 12 ppm in food", "value": "56.24 ± 3.58", "unit": "%"}]}, {"smiles": "CC(CCc1ccc(O)cc1)NCC(O)c1ccc(O)cc1", "note": "(stereo not shown) [Ractopamine, ractopamine, reference compound]", "values": [{"measurement": "intake of total food and daily average compared to the control group (untreated)", "setting": "pigs for meat supply [1]", "value": "lower intake"}, {"measurement": "FINAL WEIGHT", "setting": "pigs for meat supply [3]; 5 ppm commercial ractopamine in food, start 77.33 Kg", "value": "105.28 ± 4.98", "unit": "kg"}, {"measurement": "DAILY GAIN", "setting": "pigs for meat supply [3]; 5 ppm in food", "value": "1.00 ± .08 kg"}, {"measurement": "WEIGHT GAIN", "setting": "pigs for meat supply [3]; 5 ppm in food", "value": "27.94 ± 3.20", "unit": "kg"}, {"measurement": "AVERAGE INTAKE", "setting": "pigs for meat supply [3]; 5 ppm in food", "value": "2.35 ± .33 kg"}, {"measurement": "CONVERSION", "setting": "pigs for meat supply [3]; 5 ppm in food", "value": 2.32}, {"measurement": "TOTAL INTAKE", "setting": "pigs for meat supply [3]; 5 ppm in food", "value": "82.33 ± 11.31", "unit": "kg"}, {"measurement": "CARCASS EFFICIENCY", "setting": "pigs for meat supply [2]; 5 ppm in food", "value": 87.08, "unit": "%"}, {"measurement": "EFFICIENCY IN CUTS", "setting": "pigs for meat supply [2]; 5 ppm in food", "value": 51.69, "unit": "%"}, {"measurement": "Average fat", "setting": "pigs for meat supply [2]; 5 ppm in food", "value": "9.67 ± 1.11", "unit": "mm"}, {"measurement": "LEAN EFFICIENCY", "setting": "pigs for meat supply [2]; 5 ppm in food", "value": "58.98 ± 2.20", "unit": "%"}]}, {"smiles": "COc1cc(/C=C/C(=O)O)ccc1O", "note": "[Substantially pure ferulic acid, trans-ferulic acid]", "values": [{"measurement": "DAILY GAIN", "setting": "pigs for meat supply [3]; 15 ppm in food", "value": "1.04 ± .20 kg"}, {"measurement": "WEIGHT GAIN", "setting": "pigs for meat supply [3]; 15 ppm in food", "value": "29.25 ± 5.70", "unit": "kg"}, {"measurement": "FINAL WEIGHT", "setting": "pigs for meat supply [3]; 15 ppm substantially pure ferulic acid in food, start 78.2 Kg", "value": "107.47 ± 6.84", "unit": "kg"}, {"measurement": "AVERAGE INTAKE", "setting": "pigs for meat supply [3]; 15 ppm in food", "value": "2.30 ± .26 kg"}, {"measurement": "CONVERSION", "setting": "pigs for meat supply [3]; 15 ppm in food", "value": 2.21}, {"measurement": "TOTAL INTAKE", "setting": "pigs for meat supply [3]; 15 ppm in food", "value": "80.57 ± 8.13", "unit": "kg"}, {"measurement": "CARCASS EFFICIENCY", "setting": "pigs for meat supply [2]; 15 ppm in food", "value": 89.26, "unit": "%"}, {"measurement": "EFFICIENCY IN CUTS", "setting": "pigs for meat supply [2]; 15 ppm in food", "value": 50.88, "unit": "%"}, {"measurement": "Average fat", "setting": "pigs for meat supply [2]; 15 ppm in food", "value": "9.60 ± .34 mm"}, {"measurement": "LEAN EFFICIENCY", "setting": "pigs for meat supply [2]; 15 ppm in food", "value": "59.66 ± 3.14", "unit": "%"}]}]}
